In PubChem BioAssay (NCI):
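Tested at 5 concentrations; 48 h exposure; 96-well plates; endpoints linearly interpolated, else capped at highest concentration. GI50: concentration for 50% inhibition of growth. TGI: concentration producing complete growth inhibition.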

How the values were obtained:
Test in all cases: inhibition of tumour cell growth, NCI panel, 48 h
786-0 renal = test system: 786-0 renal
A498 renal = test system: A498 renal
A549 NSCLC = test system: A549 NSCLC
ACHN renal = test system: ACHN renal
BT-549 breast = test system: BT-549 breast
CAKI-1 renal = test system: CAKI-1 renal
CCRF-CEM leukemia = test system: CCRF-CEM leukemia
COLO 205 colon = test system: COLO 205 colon
DU-145 prostate = test system: DU-145 prostate
EKVX NSCLC = test system: EKVX NSCLC
HCC-2998 colon = test system: HCC-2998 colon
HCT-116 colon = test system: HCT-116 colon
HCT-15 colon = test system: HCT-15 colon
HL-60(TB) leukemia = test system: HL-60(TB) leukemia
HOP-62 NSCLC = test system: HOP-62 NSCLC
HOP-92 NSCLC = test system: HOP-92 NSCLC
HS 578T breast = test system: HS 578T breast
HT29 colon = test system: HT29 colon
IGROV1 ovarian = test system: IGROV1 ovarian
K-562 leukemia = test system: K-562 leukemia
KM12 colon = test system: KM12 colon
LOX IMVI melanoma = test system: LOX IMVI melanoma
M14 melanoma = test system: M14 melanoma
MALME-3M melanoma = test system: MALME-3M melanoma
MCF7 breast = test system: MCF7 breast
MDA-MB-231 breast = test system: MDA-MB-231 breast
MDA-MB-435 = test system: MDA-MB-435
MDA-MB-468 breast = test system: MDA-MB-468 breast
MOLT-4 leukemia = test system: MOLT-4 leukemia
NCI-H226 lung = test system: NCI-H226 lung
NCI-H23 lung = test system: NCI-H23 lung
NCI-H460 lung = test system: NCI-H460 lung
NCI-H522 lung = test system: NCI-H522 lung
NCI/ADR-RES ovarian = test system: NCI/ADR-RES ovarian
OVCAR-3 ovarian = test system: OVCAR-3 ovarian
OVCAR-4 ovarian = test system: OVCAR-4 ovarian
OVCAR-5 ovarian = test system: OVCAR-5 ovarian
OVCAR-8 ovarian = test system: OVCAR-8 ovarian
PC-3 prostate = test system: PC-3 prostate
RPMI-8226 leukemia = test system: RPMI-8226 leukemia
RXF 393 renal = test system: RXF 393 renal
SF-268 CNS = test system: SF-268 CNS
SF-295 CNS = test system: SF-295 CNS
SF-539 CNS = test system: SF-539 CNS
SK-MEL-2 melanoma = test system: SK-MEL-2 melanoma
SK-MEL-28 melanoma = test system: SK-MEL-28 melanoma
SK-MEL-5 melanoma = test system: SK-MEL-5 melanoma
SK-OV-3 ovarian = test system: SK-OV-3 ovarian
SN12C renal = test system: SN12C renal
SNB-19 CNS = test system: SNB-19 CNS
SNB-75 CNS = test system: SNB-75 CNS
SR leukemia = test system: SR leukemia
SW-620 colon = test system: SW-620 colon
T-47D breast = test system: T-47D breast
TK-10 renal = test system: TK-10 renal
U251 CNS = test system: U251 CNS
UACC-257 melanoma = test system: UACC-257 melanoma
UACC-62 melanoma = test system: UACC-62 melanoma
UO-31 renal = test system: UO-31 renal

For `O=C(NO)c1ccc(Cn2ccc3c(Nc4ccccc4)ncnc32)cc1`, the GI50 (786-0 renal) was 3.78 µM, the TGI (786-0 renal) was 8.97 µM and the GI50 (A498 renal) was 1.31 µM. For the same molecule, the TGI (A498 renal) was 6.79 µM, the GI50 (A549 NSCLC) was 3.1 µM and the TGI (A549 NSCLC) was 15.5 µM. It also gave a GI50 (ACHN renal) of 1.95 µM, a TGI (ACHN renal) of 5.92 µM and a GI50 (BT-549 breast) of 7.71 µM. The TGI (BT-549 breast) was 15.4 µM, the GI50 (CAKI-1 renal) was 2.17 µM and the TGI (CAKI-1 renal) was 6.91 µM. It also gave a GI50 (CCRF-CEM leukemia) of 1.41 µM, a TGI (CCRF-CEM leukemia) greater than 29 µM and a GI50 (COLO 205 colon) of 1.43 µM. It also gave a TGI (COLO 205 colon) of 5.73 µM, a GI50 (DU-145 prostate) of 1.41 µM and a TGI (DU-145 prostate) greater than 29 µM. It also gave a GI50 (EKVX NSCLC) of 2.75 µM, a TGI (EKVX NSCLC) of 6.9 µM and a GI50 (HCC-2998 colon) of 2.62 µM. The TGI (HCC-2998 colon) was 6.12 µM, the GI50 (HCT-116 colon) was 0.993 µM and the TGI (HCT-116 colon) was 5.6 µM. For the same molecule, the GI50 (HCT-15 colon) was 3.59 µM, the TGI (HCT-15 colon) was 7.81 µM and the GI50 (HL-60(TB) leukemia) was 0.984 µM. The TGI (HL-60(TB) leukemia) was 3.89 µM, the GI50 (HOP-62 NSCLC) was 2.2 µM and the TGI (HOP-62 NSCLC) was 7.63 µM. For the same molecule, the GI50 (HOP-92 NSCLC) was 1.74 µM, the TGI (HOP-92 NSCLC) was 7.35 µM and the GI50 (HS 578T breast) was 1.7 µM. For the same molecule, the TGI (HS 578T breast) was 17.5 µM, the GI50 (HT29 colon) was 1.43 µM and the TGI (HT29 colon) was 14.1 µM. It also gave a GI50 (IGROV1 ovarian) of 2.34 µM, a TGI (IGROV1 ovarian) of 6.22 µM and a GI50 (K-562 leukemia) of 1.14 µM. The TGI (K-562 leukemia) was greater than 29 µM, the GI50 (KM12 colon) was 3.7 µM and the TGI (KM12 colon) was 10.9 µM. It also gave a GI50 (LOX IMVI melanoma) of 1.78 µM, a TGI (LOX IMVI melanoma) of 5.44 µM and a GI50 (M14 melanoma) of 2.99 µM. It also gave a TGI (M14 melanoma) of 10.1 µM, a GI50 (MALME-3M melanoma) of 0.869 µM and a TGI (MALME-3M melanoma) of 4.1 µM. The GI50 (MCF7 breast) was 3.8 µM, the TGI (MCF7 breast) was 12.4 µM and the GI50 (MDA-MB-231 breast) was 1.94 µM. For the same molecule, the TGI (MDA-MB-231 breast) was 6.68 µM, the GI50 (MDA-MB-435) was 1.22 µM and the TGI (MDA-MB-435) was 5.03 µM. It also gave a GI50 (MDA-MB-468 breast) of 0.718 µM, a TGI (MDA-MB-468 breast) of 2.76 µM and a GI50 (MOLT-4 leukemia) of 0.93 µM. It also gave a TGI (MOLT-4 leukemia) of 7.6 µM, a GI50 (NCI-H226 lung) of 3.88 µM and a TGI (NCI-H226 lung) of 16 µM. For the same molecule, the GI50 (NCI-H23 lung) was 1.47 µM, the TGI (NCI-H23 lung) was 5.08 µM and the GI50 (NCI-H460 lung) was 1.33 µM. The TGI (NCI-H460 lung) was 8.45 µM, the GI50 (NCI-H522 lung) was 1.07 µM and the TGI (NCI-H522 lung) was 4.87 µM. For the same molecule, the GI50 (NCI/ADR-RES ovarian) was 0.636 µM, the TGI (NCI/ADR-RES ovarian) was 2.03 µM and the GI50 (OVCAR-3 ovarian) was 3.06 µM. The TGI (OVCAR-3 ovarian) was 12.1 µM, the GI50 (OVCAR-4 ovarian) was 5.79 µM and the TGI (OVCAR-4 ovarian) was greater than 29 µM. The GI50 (OVCAR-5 ovarian) was 1.02 µM, the TGI (OVCAR-5 ovarian) was 5.07 µM and the GI50 (OVCAR-8 ovarian) was 1.29 µM. It also gave a TGI (OVCAR-8 ovarian) of 8.8 µM, a GI50 (PC-3 prostate) of 2.82 µM and a TGI (PC-3 prostate) of 21.5 µM. For the same molecule, the GI50 (RPMI-8226 leukemia) was 1.1 µM, the TGI (RPMI-8226 leukemia) was greater than 29 µM and the GI50 (RXF 393 renal) was 0.934 µM. For the same molecule, the TGI (RXF 393 renal) was 4.02 µM, the GI50 (SF-268 CNS) was 4.06 µM and the TGI (SF-268 CNS) was 9.64 µM. It also gave a GI50 (SF-295 CNS) of 1.73 µM, a TGI (SF-295 CNS) of 5.74 µM and a GI50 (SF-539 CNS) of 2.55 µM. The TGI (SF-539 CNS) was 6.77 µM, the GI50 (SK-MEL-2 melanoma) was 4.75 µM and the TGI (SK-MEL-2 melanoma) was 11.4 µM. The GI50 (SK-MEL-28 melanoma) was 2.04 µM, the TGI (SK-MEL-28 melanoma) was 6.29 µM and the GI50 (SK-MEL-5 melanoma) was 1.06 µM. The TGI (SK-MEL-5 melanoma) was 4.05 µM, the GI50 (SK-OV-3 ovarian) was 2 µM and the TGI (SK-OV-3 ovarian) was 9.87 µM. It also gave a GI50 (SN12C renal) of 3.29 µM, a TGI (SN12C renal) of 7.05 µM and a GI50 (SNB-19 CNS) of 3.26 µM. The TGI (SNB-19 CNS) was 7.51 µM, the GI50 (SNB-75 CNS) was 1.04 µM and the TGI (SNB-75 CNS) was 6.11 µM. It also gave a GI50 (SR leukemia) of 0.817 µM, a TGI (SR leukemia) greater than 29 µM and a GI50 (SW-620 colon) of 0.863 µM. The TGI (SW-620 colon) was 3.31 µM, the GI50 (T-47D breast) was 2.42 µM and the TGI (T-47D breast) was greater than 29 µM. For the same molecule, the GI50 (TK-10 renal) was 1.42 µM, the TGI (TK-10 renal) was 12 µM and the GI50 (U251 CNS) was 2.78 µM. It also gave a TGI (U251 CNS) of 15.8 µM, a GI50 (UACC-257 melanoma) of 2.3 µM and a TGI (UACC-257 melanoma) of 9.79 µM. The GI50 (UACC-62 melanoma) was 1.04 µM, the TGI (UACC-62 melanoma) was 4.42 µM and the GI50 (UO-31 renal) was 2.42 µM. It also gave a TGI (UO-31 renal) of 6.38 µM.
